Experiments:
5HT1A receptor = biological target: T1, 5HT1A receptor (Homo sapiens, UniProt P08908); assay: Competitive receptor binding, 5HT1A (radiolabeled OH-DPAT); conditions: for inhibition at 0.1 µM: 100 nM, read-out: Percent inhibition of receptor binding at 100 nM, 5HT1A Receptor Binding
T1 sequence (P08908 1-422): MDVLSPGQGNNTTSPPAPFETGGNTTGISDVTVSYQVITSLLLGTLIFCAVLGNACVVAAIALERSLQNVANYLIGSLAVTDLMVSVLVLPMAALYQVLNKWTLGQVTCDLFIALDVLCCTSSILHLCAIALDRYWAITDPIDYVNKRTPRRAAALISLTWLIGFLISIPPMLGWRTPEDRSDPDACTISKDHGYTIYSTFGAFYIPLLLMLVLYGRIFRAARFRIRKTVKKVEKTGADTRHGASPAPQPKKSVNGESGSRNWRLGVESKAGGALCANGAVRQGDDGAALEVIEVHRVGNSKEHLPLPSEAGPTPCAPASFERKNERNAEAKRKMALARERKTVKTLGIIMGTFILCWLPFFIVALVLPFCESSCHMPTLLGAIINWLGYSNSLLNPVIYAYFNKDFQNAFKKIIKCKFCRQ
Procedure: (§1) A set of compounds were tested for their ability to inhibit binding of a binding ligand to the 5HT1A, 5HT1D, and 5HT7 receptors in a competitive assay. The tested compounds were placed in the assay with either radiolabeled OH-DPAT (which binds the 5HT1A receptor), radiolabeled serotonin (which binds the 5HT1D receptor), or radiolabeled LSD (lysergic acid diethylamide, which binds the 5HT7 receptor).

5HT1D receptor = 5HT1D receptor (Homo sapiens, UniProt P28221); assay: Competitive receptor binding, 5HT1D (radiolabeled serotonin); conditions: for inhibition at 0.1 µM: 100 nM, read-out: Percent inhibition of receptor binding at 100 nM, 5HT1D Receptor Binding
Procedure: as §1

5HT7 receptor = 5HT7 receptor (Homo sapiens, UniProt P34969); assay: Competitive receptor binding, 5HT7 (radiolabeled LSD); conditions: for inhibition at 0.1 µM: 100 nM, read-out: Percent inhibition of receptor binding at 100 nM, 5HT7 Receptor Binding
Procedure: as §1

C57 male mice [1] = assay: Condition Avoidance Responding (CAR, active avoidance) model, antipsychotic activity; format: in vivo; conditions: 10 mg/kg subcutaneously 30 minutes before test session; C57 male mice tested 24 hours after training; FIG. 1
Procedure: The Condition Avoidance Responding (CAR, active avoidance) model is used as a test for antipsychotic activity. The disruption of avoidance (increased latency) without disruption of escape (extrapyramidal motor function) is a clinical predictor of compounds with antipsychotic activity. The compound of example 10 above (1-[3-(5-Pyridin-4-yl-[1,3,4]oxadiazol-2-ylsulfanyl)propyl]-4-(3-chlorophenyl)piperazine) was evaluated in this model as follows.
(§2) Training of animals (mice) consisted of 20 trials with variable inter-trial intervals (trained to 80% Avoidance Criteria). After a one-minute acclimation period, the house light and an acoustic 90 dB tone (conditioned stimuli) were presented. A response (crossing to a dark compartment) within 5 seconds ended the trial and the trial was recorded as avoidance response (CAR). […] To avoid shock, animals learn to move from the lighted side of the chamber to the dark side when the cue is presented (avoidance) or moved when the shock is administered (escape). Vehicle or test compounds were administered subcutaneously 30 minutes before the test session.
(§3) C57 male mice were tested 24 hours after being trained as described above.

C57 male mice [2] = assay: Condition Avoidance Responding (CAR, active avoidance) model, memory; format: in vivo; conditions: 10 mg/kg subcutaneously 30 minutes before test session; C57 male mice tested 24 hours after training; FIG. 2
Text: The Condition Avoidance Responding (CAR, active avoidance) model, although primarily a test for detecting anti-psychotic activity, includes an element of training and learning (acquisition of memory), and thus can also be used as a model for testing a compound's effects on learning (acquisition of information) and memory (retention of information). A decrease in the latency of an animal's response indicates an enhancement of an animal's memory of the stimulus. The compound of example 12 above (1-[3-(1-Phenyl-1H-tetrazol-5-ylsulfanyl)propyl]-4-(3-chlorophenyl)piperazine) was evaluated in this model as follows.
as §2, §3

Chain of 5HT1D receptor (P28221 whole entry): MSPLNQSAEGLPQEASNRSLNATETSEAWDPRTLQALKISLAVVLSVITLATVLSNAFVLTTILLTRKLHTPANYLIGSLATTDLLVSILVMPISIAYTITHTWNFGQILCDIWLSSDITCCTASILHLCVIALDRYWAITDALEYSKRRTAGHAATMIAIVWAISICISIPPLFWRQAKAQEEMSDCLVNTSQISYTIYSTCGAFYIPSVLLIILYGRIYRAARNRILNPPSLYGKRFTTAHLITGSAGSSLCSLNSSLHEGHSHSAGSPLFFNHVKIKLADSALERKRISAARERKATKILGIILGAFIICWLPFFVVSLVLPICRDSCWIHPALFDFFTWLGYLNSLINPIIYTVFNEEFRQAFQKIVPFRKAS
Chain of 5HT7 receptor (P34969 whole entry): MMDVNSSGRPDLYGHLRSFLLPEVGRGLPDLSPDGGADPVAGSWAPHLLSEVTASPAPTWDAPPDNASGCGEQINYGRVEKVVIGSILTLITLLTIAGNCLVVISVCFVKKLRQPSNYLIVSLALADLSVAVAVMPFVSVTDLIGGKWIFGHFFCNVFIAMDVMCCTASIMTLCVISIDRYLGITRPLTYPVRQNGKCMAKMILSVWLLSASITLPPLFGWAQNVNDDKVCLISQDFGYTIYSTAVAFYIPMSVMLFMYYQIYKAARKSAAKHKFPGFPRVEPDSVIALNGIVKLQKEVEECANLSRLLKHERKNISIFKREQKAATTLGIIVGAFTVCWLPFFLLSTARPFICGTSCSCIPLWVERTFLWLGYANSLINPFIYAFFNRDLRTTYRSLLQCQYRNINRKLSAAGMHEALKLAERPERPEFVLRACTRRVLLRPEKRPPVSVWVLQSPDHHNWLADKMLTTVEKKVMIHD

Compound	inhibition at 0.1 µM (5HT1A receptor) [%]	inhibition at 0.1 µM (5HT1D receptor) [%]	inhibition at 0.1 µM (5HT7 receptor) [%]	latency in CAR (antipsychotic activity) (C57 male mice [1])	latency in CAR (memory) (C57 male mice [2])	Percent inhibition of receptor binding at 100 nM, 5HT1A Receptor Binding (5HT1A receptor) [%]	Percent inhibition of receptor binding at 100 nM, 5HT1D Receptor Binding (5HT1D receptor) [%]	Percent inhibition of receptor binding at 100 nM, 5HT7 Receptor Binding (5HT7 receptor) [%]
Cn1ccnc1SCCN1CCN(c2cccc(C(F)(F)F)c2)CC1 [Example 1, 1-[2-(1-Methyl-1H-imidazol-2-ylsulfanyl)ethyl]-4-(3-trifluoromethylphenyl)piperazine]	87	52	63					
FC(F)(F)c1cccc(N2CCN(CCSc3nnc(-c4ccncc4)o3)CC2)c1 [Example 3, 1-[2-(5-Pyridin-4-yl-[1,3,4]oxadiazol-2-ylsulfanyl)ethyl]-4-(3-trifluoromethylphenyl)piperazine]	92	10	25					
Cn1ccnc1SCCCN1CCN(c2cccc(Cl)c2)CC1 [Example 8, 1-[3-(1-Methyl-1H-imidazol-2-ylsulfanyl)propyl]-4-(3-chlorophenyl)piperazine]	94	50	82					
c1cc(-c2nnc(SCCCN3CCN(c4nccc5occc45)CC3)o2)ccn1 [Example 42, 4-{4-[3-(5-Pyridin-4-yl-[1,3,4]oxadiazol-2-sulfanyl)propyl]piperazin-1-yl}furo[3,2-c]pyridine]						96	65	21

Further lines, with some results ahead:

inhibition at 0.1 µM (5HT1A receptor) [%]	inhibition at 0.1 µM (5HT1D receptor) [%]	inhibition at 0.1 µM (5HT7 receptor) [%]	Compound	latency in CAR (antipsychotic activity) (C57 male mice [1])	latency in CAR (memory) (C57 male mice [2])	Percent inhibition of receptor binding at 100 nM, 5HT1A Receptor Binding (5HT1A receptor) [%]	Percent inhibition of receptor binding at 100 nM, 5HT1D Receptor Binding (5HT1D receptor) [%]	Percent inhibition of receptor binding at 100 nM, 5HT7 Receptor Binding (5HT7 receptor) [%]
97	51	8	Clc1cccc(N2CCN(CCCSc3nnc(-c4ccncc4)o3)CC2)c1 [Example 10, 1-[3-(5-Pyridin-4-yl-[1,3,4]oxadiazol-2-ylsulfanyl)propyl]-4-(3-chlorophenyl)piperazine]	statistically significant increase in latency				
75	6	43	Clc1cccc(N2CCN(CCCSc3nnnn3-c3ccccc3)CC2)c1 [Example 12, 1-[3-(1-Phenyl-1H-tetrazol-5-ylsulfanyl)propyl]-4-(3-chlorophenyl)piperazine]		statistically significant decrease in latency			
71		81	Cn1ccnc1SCCCN1CCN(c2nccc3occc23)CC1 [Example 38, 4-{4-[3-(1-Methyl-1H-imidazol-2-ylsulfanyl)propyl]piperazin-1-yl}furo[3,2-c]pyridine]					
97	38	67	c1ccc(-n2nnnc2SCCCN2CCN(c3nccc4occc34)CC2)cc1 [Example 40, 4-{4-[3-(1-Phenyl-1H-tetrazol-5-ylsulfanyl)propyl]piperazin-1-yl}furo[3,2-c]pyridine]					
